Results published in ChEMBL document CHEMBL2417385, “A new strategy for the synthesis of crucigasterin A, and cytotoxic activity of this compound and its related analogues” (Bioorg Med Chem Lett, 2013).

Experiments:
Type in all cases: functional, cell-based
[1] = system: MCF7; assay: Cytotoxicity against human MCF7 cells after 2 days by MTT assay; settings: MCF7, 48 h
[2] = system: HeLa; assay: Cytotoxicity against human HeLa cells assessed as growth inhibition after 2 days by MTT assay; settings: 48 h
[3] = system: MDA-MB-231; assay: Cytotoxicity against human MDA-MB-231 cells after 2 days by MTT assay; settings: MDA-MB-231, 48 h
[4] = system: A549; assay: Cytotoxicity against human A549 cells after 2 days by MTT assay; settings: A549, 48 h

| Structure (SMILES) | IC50 [1] [µM] | IC50 [2] [µM] | IC50 [3] [µM] | IC50 [4] [µM] |
| --- | --- | --- | --- | --- |
| C=CCCCCCC/C=C\C[C@H](O)[C@H](C)N | 15.5 | 19.2 | 10.4 | > 50 |
| CCCCCC/C=C\CC/C=C/C[C@H](O)[C@H](C)N | 13.5 | 39.7 | 12.7 | 7.81 |
| C=CCCCC/C=C/C=C/C[C@H](O)[C@H](C)N | > 50 | 5.91 | 8.03 | 14.7 |
| COc1cccc2c1C(=O)c1c(O)c3c(c(O)c1C2=O)C[C@@](O)(C(=O)CO)C[C@@H]3O[C@H]1C[C@H](N)[C@H](O)[C@H](C)O1 [DOXORUBICIN] | 13.5 | 0.509 | 0.91 | 0.459 |
